The test has as its target T1, transferrin iron complex (holo-Transferrin (hTf), human) (Homo sapiens, UniProt P02787).
T1 construct: purchased Sigma Corporation T0665-50MG
The test is described as follows: Evaluation D: capture of iron ions from transferrin iron complex. The format is binding. Here is the method: Evaluation was carried out by the following evaluation method D with respect to properties whether iron ions were captured from the transferrin iron complex (transferrin iron complex in which transferrin is chelated to iron ions) by the iron chelating agent according to Examples 1 to 2.
The iron chelating agent according to Example 1 was dissolved in 1×D-PBS (pH 7.2) to prepare an iron chelating agent solution (“Fe-Ser•Na (5 mM)”) having an iron chelating agent concentration of 5 mM, in the same manner as the preparation method of the iron chelating agent in evaluation A of the iron chelating agent.
Further, as described above, the iron chelating agent according to Example 2 was dissolved in 1×D-PBS (pH 7.2) to prepare an iron chelating agent solution (“Fe-His•Na (5 mM)”) having an iron chelating agent concentration of 5 mM.
Further, 800 mM HEDTA solution as the iron chelating agent according to Comparative Example 3 was prepared as described above. 13.76 g of crystals were taken in a 50 mL conical tube, 25 mL of Milli-Q water was added and dissolution performed, and then adjustment to pH 7.0 was performed using concentrated hydrochloric acid (35 to 37%) and the total amount was adjusted to 50 mL using Milli-Q water (HEDTA solution (800 mM)). HEDTA solution (“HEDTA solution (5 mM)”) having a concentration of HEDTA of 5 mM was prepared using 1×D-PBS (pH 7.2).
Further, 800 mM solution (pH 7.0) was prepared by using NTA2Na and NTA3Na as iron chelating agents according to Comparative Example 1 as described above. 9.4 g of NTA2Na was dissolved in Milli-Q water and the total volume was made up to 50 mL (referred to as “NTA2Na solution (800 mM)” in some cases). Meanwhile, 11.0 g of NTA3Na was dissolved in Milli-Q water and the total volume was made up to 50 mL (“NTA3Na solution (800 mM)”). NTA2Na solution (800 mM) (pH 6.3) and NTA3Na solution (800 mM) (pH 11.3) were mixed to produce 800 mM of NTA solution with pH 7.0. NTA solution (“NTA solution (5 mM)”) having a concentration of NTA of 5 mM was prepared by using 1×D-PBS (pH 7.2).
A commercially available transferrin iron complex (holo-Transferrin (hTf), human, Code T0665-50MG, Lot 095K1633, manufactured by Sigma Corporation) was dissolved in 1×D-PBS (pH 7.2) to prepare a transferrin iron complex solution having a concentration of iron ions (iron ions which are transferrin-bound iron) of 50 μM.
50 μl of 50 μM transferrin iron complex solution was taken in a 1.5 mL sample tube, 50 μl of each of iron chelating agent solutions (Fe-Ser•Na (5 mM), Fe-His•Na (5 mM), NTA solution (5 mM), HEDTA solution (5 mM)) was added thereto and left at room temperature under light shielding for 24 hours. 50 μl of various reaction liquids was taken in a centrifugal ultrafiltration unit (trade name “Amicon Ultra-4 Ultracel-30k” UFC8030, manufactured by Millipore Corporation), and 450 μl of 1×D-PBS (pH 7.2) was added thereto, centrifugation was carried out at 3,500 rpm and 20° C. for 30 minutes, and transferrin and each low molecular chelating agents were separated (first time). After centrifugation, the filtrate was discarded. 450 μl of 1×D-PBS (pH 7.2) was added again to the solution (about 50 μl) containing transferrin concentrated in a unit and centrifugation was carried out with the same conditions (second time). A solution containing transferrin concentrated in a unit was recovered after the second time of centrifugation and the absorbance at the wavelength of 466 nm was measured using a spectrophotometer (trade name “Spectrophotometer DU 640”, manufactured by Beckman Coulter).

Experimental findings from patent US8623661B2, “Iron chelating agent, method for producing same, method for determining amount of iron ions and method for trapping iron ions” (National University Corporation Asahikawa Medical College, priority 2008, dated 2014) are described below.

T1 sequence (P02787 20-698, one chain of several): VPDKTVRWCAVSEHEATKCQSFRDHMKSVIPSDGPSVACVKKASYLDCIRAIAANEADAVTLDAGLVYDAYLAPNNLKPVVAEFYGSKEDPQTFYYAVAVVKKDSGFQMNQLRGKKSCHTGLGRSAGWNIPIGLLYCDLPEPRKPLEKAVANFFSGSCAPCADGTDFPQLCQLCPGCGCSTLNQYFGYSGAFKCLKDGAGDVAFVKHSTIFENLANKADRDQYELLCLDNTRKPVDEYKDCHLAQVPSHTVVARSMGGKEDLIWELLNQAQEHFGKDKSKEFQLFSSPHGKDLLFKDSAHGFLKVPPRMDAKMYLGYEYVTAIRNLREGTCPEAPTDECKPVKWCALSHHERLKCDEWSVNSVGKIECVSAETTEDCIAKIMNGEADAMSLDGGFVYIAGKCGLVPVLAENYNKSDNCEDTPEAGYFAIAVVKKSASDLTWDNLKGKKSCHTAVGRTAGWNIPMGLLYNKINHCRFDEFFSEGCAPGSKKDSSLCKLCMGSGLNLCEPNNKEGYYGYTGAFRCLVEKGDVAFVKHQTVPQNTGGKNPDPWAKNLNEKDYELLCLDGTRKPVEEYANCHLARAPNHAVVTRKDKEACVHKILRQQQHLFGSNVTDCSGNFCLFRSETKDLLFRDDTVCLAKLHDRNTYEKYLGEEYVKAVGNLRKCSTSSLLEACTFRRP

In the case of `O=C(O)C(CO)NCc1ccccc1O` (stereo not shown) [Example 1, o-[(1-carboxy-2-hydroxyethyl)-amino-methyl]-phenol], where the note is “conclusion from Table 5”, the “capture of iron ions from the transferrin iron complex” value is given as “does not remove iron ions of the transferrin iron complex” and the “change of absorbance (wavelength 466 nm) after addition to the transferrin iron complex solution” value is on record as “increased”. Moreover, the “hTf residual ratio (%)” value (relative to non-treated holo-Transferrin, 24 hours with 5 mM chelator solution) amounted to 104.32%. Besides, the “Absorbance (466 nm)” value (transferrin fraction after 24 hours at room temperature with 5 mM chelator solution and 50 μM transferrin iron complex solution, ultrafiltration) worked out at 0.0772.
